Reference: patent EP2140864A2 (H. Lundbeck A/S, priority 2001, dated 2002)

Each compound was assayed against T1, human GAL3 receptor (Homo sapiens, UniProt O60755) (assay: Radioligand binding at cloned human GAL3 receptor). Details: indolones, cloned human receptor; read-out: Ki GalR3.
T1 construct: expressed in transfected cells
T1 sequence (O60755 1-368): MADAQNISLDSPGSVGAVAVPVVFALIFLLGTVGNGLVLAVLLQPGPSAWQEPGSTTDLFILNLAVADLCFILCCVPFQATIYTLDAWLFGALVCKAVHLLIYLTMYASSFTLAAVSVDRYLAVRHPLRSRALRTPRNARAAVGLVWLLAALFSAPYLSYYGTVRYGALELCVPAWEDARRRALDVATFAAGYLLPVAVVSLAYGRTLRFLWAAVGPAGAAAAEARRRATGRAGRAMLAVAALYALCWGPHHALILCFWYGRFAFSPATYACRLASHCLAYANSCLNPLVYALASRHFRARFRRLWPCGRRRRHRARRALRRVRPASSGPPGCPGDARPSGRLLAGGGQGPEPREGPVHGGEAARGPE
Protocol: The present invention provides for a method of determining the binding affinity of a GAL3 antagonist, wherein the GAL3 antagonist is dissolved in a "suitable solvent". A "suitable solvent" means one which permits the measurement of binding affinity of the GAL3 antagonist to the human GAL3 receptor at concentrations less than 1 µM, preferably less than 100 nM. Examples of solvents include, but are not limited to, DMSO, ethanol, N,N-dimethylacetamide, or water. For indolones, the preferred solvent is 3% DMSO (final concentration in the assay). For pyrimidines, the preferred solvent is 1% ethanol/0.09% polypuronic acid F-127 (final concentration in the assay). For any other type of compounds, the preferred solvent is the solvent which permits the measurement of binding affinity of a GAL3 antagonist at the lowest concentration. Once a suitable solvent is ascertained for the binding assay of the human GAL3 receptor, the same solvent is used in assays to determine the binding affinity at the GAL1 receptor, the serotonin transporter, the norepinephrine transporter, and the dopamine transporter. A solvent of 0.4% DMSO is used in the central monoamine oxidase enzyme assay.
The binding properties of the pyrimidines of the present invention were evaluated at the cloned human galanin receptors, GAL1, GAL2, and GAL3, using protocols described herein.
The binding properties of the indolones of the present invention were evaluated at the cloned human galanin receptors, GAL1, GAL2, and GAL3, using protocols described herein.
LM(tk-) cells were stably transfected with the human GAL1 or GAL3 receptor. CHO cells were stably transfected with the human GAL2 receptor.
cDNAs for the human and rat GAL1, and human and rat GAL3 receptors were transfected with a G-418 resistant gene into the mouse fibroblast LM(tk-) cell line by a calcium phosphate transfection method (Cullen, 1987). Stably transfected cells were selected with G-418. Human and rat GAL2 receptors were similarly transfected into CHO cells.
Membranes were harvested from stably transfected LM(tk-) cells. Adherent cells were washed twice in ice-cold phosphate buffered saline (138 mM NaCl, 8.1 mM Na2HPO4, 2.5 mM KCl, 1.2 mM KH2PO4, 0.9 mM CaCl2, 0.5 mM MgCl2, pH 7.4) and lysed by sonication in ice-cold sonication buffer (20 mM Tris-HCl, 5 mM EDTA, pH 7.7). Large particles and debris were cleared by low speed centrifugation (200 x g, 5 min, 4°C). Membranes were collected from the supernatant fraction by centrifugation (32,000 x g, 18 min, 4°C), washed with ice-cold hypotonic buffer, and collected again by centrifugation (32,000 x g, 18 min, 4°C). The final membrane pellet was resuspended by sonication into a small volume of ice-cold binding buffer (-1 ml for every 5 plates: 10 mM NaCl, 20 mM HEPES, 0.22 mM KH2PO4, 1.26 mM CaCl2, 0.81 mM MgSO4, pH 7.4). Protein concentration was measured by the Bradford method (Bradford, 1976) using Bio-Rad Reagent, with bovine serum albumin as a standard. Membranes were held on ice for up to one hour and used fresh, or flash frozen and stored in liquid nitrogen. Membranes were prepared similarly from CHO cells.
Galanin Recentors: Binding assays were performed according to the following published methods: human GAL3 (PCT International Publication No. WO 98/15570), human GAL1 (PCT International Publication No. WO 95/2260), human GAL2 (PCT International Publication No. WO 97/26853).
Binding data were analyzed using nonlinear regression and statistical techniques available in the GraphPAD Prism package (San Diego, CA). Enzymatic assay data were derived from a standard curve of reference compound data.

Row | Ki | SMILES
1 | 377 nM | O=C1/C(=N\c2ccc3ncsc3c2)c2ccccc2N1c1ccccc1 [Example 299, (3Z)-3-(1,3-BENZOTHIAZOL-6-YLIMINO)-1-PHENYL-1,3-DIHYDRO-2H-INDOL-2-ONE]
2 | 60 nM | O=C1/C(=N\c2ccc3ccccc3c2)c2ccccc2N1c1ccsc1 [Example 260, (3Z)-3-(2-NAPHTHYLIMINO)-1-(3-THIENYL)-1,3-DIHYDRO-2H-INDOL-2-ONE]
3 | 875 nM | O=C1/C(=N\c2ccc3cn[nH]c3c2)c2ccccc2N1c1ccccc1 [Example 301, (3Z)-3-(1H-INDAZOL-6-YLIMINO)-1-PHENYL-1,3-DIHYDRO-2H-INDOL-2-ONE]
4 | 82 nM | O=C1/C(=N\c2ccc(C3CCCCC3)cc2)c2ccccc2N1c1ccsc1 [Example 296, (3Z)-3-[(4-CYCLOHEXYLPHENYL)IMINO]-1-(3-THIENYL)-1,3-DIHYDRO-2H-INDOL-2-ONE]
5 | 595 nM | Cc1noc(C)c1CN1C(=O)/C(=N\c2cccc(C(F)(F)F)c2)c2ccccc21 [Example 275]
6 | 271 nM | O=C1/C(=N\c2ccc3ncccc3c2)c2ccccc2N1c1ccsc1 [Example 291, (3Z)-3-(6-QUINOLINYLIMINO)-1-(3-THIENYL)-1,3-DIHYDRO-2H-INDOL-2-ONE]

Row | SMILES | Ki
7 | O=C1/C(=N\c2cccc(C(F)(F)F)c2)c2ccccc2N1Cc1ccccn1 [Example 273] | 202 nM

Same assay, conditions: pyrimidines, cloned human receptor; read-out: Ki GalR3

Row | SMILES | Ki
8 | Cc1ccc(Nc2cc(N(C)C)nc(NCCCc3ccccc3)n2)cc1 [Example 162] | 42 nM
9 | COc1ccc(C(F)(F)F)cc1Nc1cc(N(C)C)nc(N2CCN(Cc3ccccc3)CC2)n1 [Example 226] | 72 nM
10 | Cc1cc(C)cc(Nc2cc(N(C)C)nc(N3CCN(c4ccccn4)CC3)n2)c1 [Example 214] | 676 nM
11 | CN(C)c1cc(Nc2ccc3c(c2)CCC3)nc(N2CCN(c3ccccn3)CC2)n1 [Example 123] | 61 nM
12 | Cc1ccc(Nc2cc(N3CCCCC3)nc(N3CCN(Cc4ccccc4)CC3)n2)cc1 [Example 23] | 60 nM
13 | COc1cccc(Nc2cc(N(C)C)nc(N3CCN(c4ccccn4)CC3)n2)c1 [Example 245] | 537 nM
14 | CCCCCCCCc1ccc(Nc2cc(N(C)C)nc(N3CCN(c4ccccn4)CC3)n2)cc1 [Example 192] | 18 nM
15 | COc1cccc(Nc2cc(N(C)C)nc(N(C)CCc3ccccc3)n2)c1 [Example 251] | 54 nM
16 | CN(C)c1cc(Nc2cc(F)ccc2Cl)nc(N2CCN(c3ccccn3)CC2)n1 [Example 222] | 847 nM
17 | CN(C)c1cc(Nc2cccc(Cl)c2Cl)nc(N2CCN(c3ccccn3)CC2)n1 [Example 218] | 616 nM
18 | CN(C)c1ccc(Nc2cc(N(C)C)nc(N3CCN(Cc4ccccc4)CC3)n2)cc1 [Example 158] | 941 nM
19 | CN(C)c1cc(NC2C3CC4CC(C3)CC2C4)nc(N2CCN(Cc3ccccc3)CC2)n1 (stereo not drawn) [Example 168] | 50 nM
20 | Cc1ccc(Nc2cc(N(C)C)nc(N(C)CCc3ccccc3)n2)cc1 [Example 248] | 33 nM
21 | CN(C)c1cc(Nc2cccc(F)c2)nc(N2CCN(Cc3ccccc3)CC2)n1 [Example 164] | 60 nM
22 | COc1cccc(Nc2cc(N(C)C)nc(N3CCN(Cc4ccsc4)CC3)n2)c1 [Example 146] | 72 nM
23 | CN(C)c1cc(Nc2ccc(C(F)(F)F)cc2Cl)nc(N2CCN(Cc3ccccc3)CC2)n1 [Example 244] | 55 nM
24 | Cc1ccc(Nc2cc(N(C)C)nc(N3CCN(S(=O)(=O)c4ccc(C)cc4)CC3)n2)cc1 [Example 84] | 261 nM
25 | CN(C)c1cc(NC2CCCCCCC2)nc(N2CCN(Cc3ccccc3)CC2)n1 [Example 170] | 91 nM
26 | Cc1ccc(Nc2cc(N(C)C)nc(N3CCN(c4ccccn4)CC3)n2)c(Br)c1 [Example 204] | 269 nM
27 | CN(C)c1cc(Nc2cc(Cl)ccc2Cl)nc(N2CCN(c3ccccn3)CC2)n1 [Example 208] | 120 nM
28 | CN(C)c1cc(NC2CCC(C(C)(C)C)CC2)nc(N2CCN(Cc3ccccc3)CC2)n1 (stereo not drawn) [Example 169] | 77 nM
29 | CN(C)c1cc(Nc2ccc3c(c2)OCCO3)nc(N2CCN(c3ccccn3)CC2)n1 [Example 119] | 540 nM
30 | Cc1ccc(Nc2cc(N(C)C)nc(N3CCN(c4ccccn4)CC3)n2)cc1Nc1ccccn1 [Example 242] | 166 nM
